US20230092762A1, “THERAPEUTIC DELIVERY OF LOCKED NUCLEIC ACID CONJUGATED ANTISENSE MIR-1” (THE TRUSTEES OF INDIANA UNIVERSITY, priority 2020, published 2023)

What was measured:
human keratinocytes [1] = test: Respirometry assay (OCR, XF-96 Seahorse); assay type: cell-based; conditions: 20 μM, 24 h, vs vehicle control
Protocol: Respirometry Assay. The Oxygen Consumption Rate (OCR) measurements were performed using a Seahorse Bioscience XF-96 instrument. A day prior to the experiment, the sensor cartridge was hydrated overnight using the calibration buffer supplied by the manufacturer. The transfected cells were seeded in the 96 well microplate supplied by the company. On the day of the experiment, the cells were washed with the calibrant buffer twice and incubated with glucose free DMEM for 2 h at 37° C. in a CO2 free incubator. The injection ports of the sensors were filled with 20 μL of treatment or vehicle in buffer. The sensor was then placed into the XF-96 instrument and calibrated. After calibration, the calibration fluid plate was replaced with the cell plate. The measurement cycle consisted of a 2 min mix, 1 min wait, and a 2 min measurement. Four basal rate measurements were followed with injections and each injection is followed by four measurement cycles. The consumption rates were calculated from the continuous average slope of the O2 decreases using a compartmentalization model. For any one treatment, the rates from 10 wells were used. Rates for the wells were normalized for protein content. All average rates were normalized to the vehicle control basal and t-tests between control and treatment were used to assess statistical significance.

human keratinocytes [2] = test: Measurement of mitochondrial membrane potential (JC-1 flow cytometry; TMRM/PMPI); assay type: cell-based
Protocol: Measurement of Mitochondrial Membrane Potential. Mitochondrial membrane potential changes were assessed by two different techniques, a) using the lipophilic cationic dye JC-1 (MitoProbe JC-1 Assay Kit for Flow Cytometry, Life technologies) per manufacturer's instruction by flow cytometer. Mitochondrial membrane potential was also evaluated b) using TMRM/PMPI after 48 hours of control/[…] mimic transfection. The images were captured by confocal microscope and the quantification of fluorescent intensity was measured using FV1000 software (Olympus, Tokyo, Japan).

BAX = test: Western blot analysis of BAX in human keratinocytes; assay type: cell-based; conditions: 20 μM, 24 h
Protocol: Western Blot Analysis. Immunoblotting was performed using HaCaT cell and wound tissue lysates. After protein extraction, the protein concentration was determined by BCA protein assay as described earlier. The samples (10-20 μg of protein/lane) were separated on a 4-12% SDS polyacrylamide gel electrophoresis and probed with rabbit polyclonal anti-notch1 […] antibody (1:1000 dilution, Abcam, Cambridge, Mass.), rabbit polyclonal anti-BAX antibody (1:1000 dilution, Abcam, Cambridge, Mass.), HRP conjugated anti-GAPDH (1:10,000 dilution). Bands were visualized by horseradish peroxidase-conjugated anti-rabbit-IgG raised in donkey and horseradish peroxidase-conjugated anti-mouse-IgG raised in sheep (Amersham Biosciences, Piscataway, N.J.) at 1:2,000 dilution and the enhanced chemiluminescence assay (Amersham Biosciences, Piscataway, N.J.).

breast cancer stem cells = conditions: phase I trial; cited from earlier work

With O=C(O)CC[C@H]1CC[C@@](c2cc(F)ccc2F)(S(=O)(=O)c2ccc(Cl)cc2)CC1 [MK-0752] the ATP production (human keratinocytes [1]) was “significant decrease”, the basal respiration (human keratinocytes [1]) was “significant decrease” and the “rate of oxygen consumption” value (human keratinocytes [1]) was “decreased rate of oxygen consumption”. The “JC-1 green fluorescence (compromised ΔΨ)” value (human keratinocytes [2]; JC-1, 20 μM, 24 h) was “significant increase in JC-1 green fluorescence”, the TMRM fluorescence (human keratinocytes [2]; TMRM and PMPI staining, 20 μM, 24 h) was “significant decrease in TMRM fluorescence” and the “mitochondrial membrane potential (ΔΨ)” value (human keratinocytes [2]; studies using TMRM and PMPI) was “lowered ΔΨ”. The BAX dimerization (BAX) was “caused BAX dimerization” and the “breast cancer stem cells” value (breast cancer stem cells) was “reduction of breast cancer stem cells”.
